From PubChem BioAssay (NCI)
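Five compound concentrations were applied to cells in 96-well plates for 48 hours; endpoints were derived by simple linear interpolation of the resulting dose-response curve. TGI: total growth inhibition.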

What was measured:
Assay in all cases: growth of human tumour cells (NCI), 48 h
BT-549 breast = system: BT-549 breast
SK-MEL-28 melanoma = system: SK-MEL-28 melanoma
UACC-257 melanoma = system: UACC-257 melanoma
NCI/ADR-RES ovarian = system: NCI/ADR-RES ovarian
SNB-75 CNS = system: SNB-75 CNS
RXF 393 renal = system: RXF 393 renal
OVCAR-4 ovarian = system: OVCAR-4 ovarian
SF-268 CNS = system: SF-268 CNS
UO-31 renal = system: UO-31 renal
T-47D breast = system: T-47D breast
COLO 205 colon = system: COLO 205 colon
K-562 leukemia = system: K-562 leukemia
HCC-2998 colon = system: HCC-2998 colon
RPMI-8226 leukemia = system: RPMI-8226 leukemia
KM12 colon = system: KM12 colon
U251 CNS = system: U251 CNS
NCI-H226 lung = system: NCI-H226 lung
NCI-H460 lung = system: NCI-H460 lung
786-0 renal = system: 786-0 renal
A549 NSCLC = system: A549 NSCLC
HT29 colon = system: HT29 colon
OVCAR-3 ovarian = system: OVCAR-3 ovarian
SN12C renal = system: SN12C renal
DU-145 prostate = system: DU-145 prostate
NCI-H522 lung = system: NCI-H522 lung
SK-MEL-5 melanoma = system: SK-MEL-5 melanoma
HL-60(TB) leukemia = system: HL-60(TB) leukemia
HS 578T breast = system: HS 578T breast
UACC-62 melanoma = system: UACC-62 melanoma
HOP-92 NSCLC = system: HOP-92 NSCLC
ACHN renal = system: ACHN renal
SNB-19 CNS = system: SNB-19 CNS
PC-3 prostate = system: PC-3 prostate
HCT-116 colon = system: HCT-116 colon
SR leukemia = system: SR leukemia
MCF7 breast = system: MCF7 breast
M14 melanoma = system: M14 melanoma
MDA-N = system: MDA-N
LOX IMVI melanoma = system: LOX IMVI melanoma
MDA-MB-231 breast = system: MDA-MB-231 breast
TK-10 renal = system: TK-10 renal
SK-MEL-2 melanoma = system: SK-MEL-2 melanoma
SW-620 colon = system: SW-620 colon
MOLT-4 leukemia = system: MOLT-4 leukemia
HOP-62 NSCLC = system: HOP-62 NSCLC
MDA-MB-435 = system: MDA-MB-435
CCRF-CEM leukemia = system: CCRF-CEM leukemia
CAKI-1 renal = system: CAKI-1 renal
NCI-H23 lung = system: NCI-H23 lung
EKVX NSCLC = system: EKVX NSCLC
IGROV1 ovarian = system: IGROV1 ovarian
A498 renal = system: A498 renal
OVCAR-5 ovarian = system: OVCAR-5 ovarian
OVCAR-8 ovarian = system: OVCAR-8 ovarian
HCT-15 colon = system: HCT-15 colon
SF-295 CNS = system: SF-295 CNS
SK-OV-3 ovarian = system: SK-OV-3 ovarian
SF-539 CNS = system: SF-539 CNS
MALME-3M melanoma = system: MALME-3M melanoma

Measured: TGI

CCN(CC)CCN1C=CC(C)C(C(=O)O)C1C(N)=O (centres undefined)
not listed: SF-539 CNS | MALME-3M melanoma
> 100 µM: all other assays above

CC(C)(N=NC(C)(C)C(=N)N)C(=N)N
not listed: CCRF-CEM leukemia | MALME-3M melanoma
> 100 µM: all other assays above

O=C1c2ccccc2CCC1C(O)(C(F)(F)F)C(F)(F)F (centres undefined)
not listed: SF-268 CNS | SN12C renal | HL-60(TB) leukemia | HOP-62 NSCLC
> 100 µM: all other assays above
